pEC50: −log10 of the molar value.
target: T1, human GPR43 (Homo sapiens, UniProt O15552); assay: Ca-Flux Functional Assay: Determination of Agonist/Positive Allosteric Modulator (PAM) Activity; format: cell-based; conditions: CHO-K1 Gα16 cells stably expressing human GPR43; compound added in the presence of EC20 sodium acetate; intracellular Ca2+ by FLIPR; agonist/PAM activity not distinguished
T1 construct: expressed in transfected cells
T1 sequence (O15552 1-330): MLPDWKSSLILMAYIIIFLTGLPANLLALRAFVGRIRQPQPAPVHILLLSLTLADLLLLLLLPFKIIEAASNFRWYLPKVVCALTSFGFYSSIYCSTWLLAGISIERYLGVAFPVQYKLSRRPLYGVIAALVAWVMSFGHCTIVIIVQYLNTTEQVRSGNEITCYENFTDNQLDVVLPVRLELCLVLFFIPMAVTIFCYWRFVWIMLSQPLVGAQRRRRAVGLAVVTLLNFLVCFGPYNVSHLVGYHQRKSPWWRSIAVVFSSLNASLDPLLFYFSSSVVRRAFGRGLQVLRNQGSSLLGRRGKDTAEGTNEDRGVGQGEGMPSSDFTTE
Procedure: Ca-Flux Functional Assay: Determination of Agonist/Positive Allosteric Modulator (PAM) Activity
GPR43 agonist/PAM activity was determined by measuring changes in intracellular calcium levels using a Ca^2+ sensitive fluorescent dye. The changes in fluorescent signal were monitored by FLIPR (manufactured by Molecular Devices). GPR43 mediated increases in intracellular Ca^2+ concentration were readily detected upon activation with sodium acetate. Prior to the assay (24 hours), CHO-K1 Gα16 cells stably expressing human GPR43 were-seeded in cell culture medium in black, clear-bottom 384-well plates (Corning Inc) and grown overnight at 37° C., 5% CO2. On the day of the assay, cell culture media was removed and cells were loaded with Calcium 5 Dye (Molecular Devices) diluted in HBSS containing 25 mM HEPES, 2.5 mM Probenecid, 0.1% BSA for 1 hour at 37° C., 5% CO2. 10 point half log concentration response curves of sodium acetate from 10 mM were conducted prior to the testing of compounds to calculate the sodium acetate concentration that produces 20% of the maximal response (EC20). Test compounds (at to point half log concentration response curves from 10 μM) were added in the presence of sodium acetate to achieve a final concentration that produces approximately 20% maximal response as calculated from the previous experiment. The changes in fluorescent signal were monitored by FLIPR upon addition of the compound/EC20 sodium acetate mix. The EC50 values were determined from ten point concentration response curves. Curves were generated using the average of two wells for each data point.
The above assay detects both GPR43 receptor agonists and positive allosteric modulators of the GPR43 receptor, without distinguishing between the two. Activity in either regard is useful in the treatment of conditions associated with GPR43 receptor activity.

SMILES | pEC50
CC1CCN(S(=O)(=O)c2c(N)n(C3CCCCC3)c3nccnc23)CC1 [Example 62, 5-cyclohexyl-7-((4-methylpiperidin-1-yl)sulfonyl)-5H-pyrrolo[2,3-b]pyrazin-6-amine] | 6.52
Nc1c(S(=O)(=O)c2ccccc2)c2ncccc2n1C1CCCCC1 [Example 9, 3-(benzenesulfonyl)-1-cyclohexyl-1H-[3,2-b]pyridin-2-amine] | 5.90
Nc1c(S(=O)(=O)N2CCOCC2)c2nccnc2n1C1CCCCC1 [Example 61, 5-cyclohexyl-7-(morpholinosulfonyl)-5H-pyrrolo[2,3-b]pyrazin-6-amine] | 5.36
Nc1c(S(=O)(=O)N2CCC(CO)CC2)c2nccnc2n1C1CCCCC1 [Example 106, (1-{6-amino-5-cyclohexyl-5H-pyrrolo[2,3-b]pyrazine-7-sulfonyl}piperidin-4-yl)methanol] | 5.52
COc1ccc(S(=O)(=O)c2c(N)n(C3CCC(F)(F)CC3)c3nccnc23)cc1 [Example 13, 5-(4,4-difluorocyclohexyl)-7-[(4-methoxybenzene)sulfonyl]-5H-pyrrolo[2,3-b]pyrazin-6-amine] | 6.89
CNc1ncnc2c(S(=O)(=O)c3ccccc3)c(N)n(C3CCC(F)(F)CC3)c12 [Example 33, 7-(benzenesulfonyl)-5-(4,4-difluorocyclohexyl)-4-N-methyl-5H-pyrrolo[3,2-d]pyrimidine-4,6-diamine] | 5.57
COc1ccc(S(=O)(=O)c2c(N)n(C3CCCCC3)c3nccnc23)cc1Cl [Example 114, 7-[(3-chloro-4-methoxybenzene)-sulfonyl]-5-cyclohexyl-5H-pyrrolo[2,3-b]pyrazin-6-amine] | 6.69
CC1CN(S(=O)(=O)c2c(N)n(C3CCCCC3)c3nccnc23)CC(C)O1 (mixture of isomers) [Example 76, 5-cyclohexyl-7-(2,6-dimethylmorpholine-4-sulfonyl)-5H-pyrrolo[2,3-b]pyrazin-6-amine] | 5.82
Nc1c(S(=O)(=O)c2ccccc2)c2ncccc2n1C1CCC(F)(F)CC1 [Example 21, 3-(benzenesulfonyl)-1-(4,4-difluorocyclohexyl)-1H-pyrrolo[3,2-b]pyridin-2-amine] | 6.55
Nc1c(S(=O)(=O)N2CCCCCC2)c2nccnc2n1C1CCCCC1 [Example 77, 7-(azepane-1-sulfonyl)-5-cyclohexyl-5H-pyrrolo[2,3-b]pyrazin-6-amine] | 6.54
CC1CCN(S(=O)(=O)c2c(N)n(C3CCCCC3)c3nccnc23)C1 (stereo not drawn) [Example 67, 5-cyclohexyl-7-((3-methylpyrrolidin-1-yl)sulfonyl)-5H-pyrrolo[2,3-b]pyrazin-6-amine] | 6.08
Nc1c(S(=O)(=O)N2CCC(Cc3ccccc3)CC2)c2nccnc2n1C1CCCCC1 [Example 81, 7-(4-benzylpiperidine-1-sulfonyl)-5-cyclohexyl-5H-pyrrolo[2,3-b]pyrazin-6-amine] | 5.90
CCC(C)NS(=O)(=O)c1c(N)n(C2CCCCC2)c2nccnc12 (stereo not drawn) [Example 95, 6-amino-N-(butan-2-yl)-5-cyclohexyl-5H-pyrrrolo[2,3-b]pyrazine-7-sulfonamide] | 6.48
COc1ccc(S(=O)(=O)c2c(N)n(C3CCCCC3)c3nccnc23)cc1 [Example 108, 5-cyclohexyl-7-[(4-methoxybenzene)-sulfonyl]-5H-pyrrolo[2,3-b]pyrazin-6-amine] | 7.11
Cc1ccc(S(=O)(=O)c2c(N)n(C3CCCCC3)c3nccnc23)cc1 [Example 3] | 6.91
Nc1c(S(=O)(=O)c2cccc(F)c2)c2nccnc2n1C1CCCCC1 [Example 110, 5-cyclohexyl-7-[(3-fluorobenzene)sulfonyl]-5H-pyrrolo[2,3-b]pyrazin-6-amine] | 6.46
Nc1c(S(=O)(=O)N2Cc3ccccc3C2)c2nccnc2n1C1CCCCC1 [Example 97, 5-cyclohexyl-7-(2,3-dihydro-1H-isoindole-2-sulfonyl)-5H-pyrrolo[2,3-b]pyrazin-6-amine] | 6.76
CN(C1CCCCC1)S(=O)(=O)c1c(N)n(C2CCCCC2)c2nccnc12 [Example 71, 6-amino-N,5-dicyclohexyl-N-methyl-5H-pyrrolo[2,3-b]pyrazine-7-sulfonamide] | 5.08

SMILES | pEC50
CN(C)c1ncnc2c(S(=O)(=O)c3ccccc3)c(N)n(C3CCCCC3)c12 [Example 34, 7-(benzenesulfonyl)-5-cyclohexyl-4-N,4-N-dimethyl-5H-pyrrolo[3,2-d]pyrimidine-4,6-diamine] | 5.22
Nc1c(S(=O)(=O)N2CC(n3cccn3)C2)c2nccnc2n1C1CCCCC1 [Example 101, 5-cyclohexyl-7-[3-(1H-pyrazol-1-yl)azetidine-1-sulfonyl]-5H-pyrrolo[2,3-b]pyrazin-6-amine] | 5.15
CN1CCN(S(=O)(=O)c2c(N)n(C3CCCCC3)c3nccnc23)CC1 [Example 63, 5-cyclohexyl-7-((4-methylpiperazin-1-yl)sulfonyl)-5H-pyrrolo[2,3-b]pyrazin-6-amine] | 5.10
Nc1c(S(=O)(=O)N2CC(Oc3ccccc3)C2)c2nccnc2n1C1CCCCC1 [Example 99, 5-cyclohexyl-7-(3-phenoxyazetidine-1-sulfonyl)-5H-pyrrolo[2,3-b]pyrazin-6-amine] | 5.81
CC1(C)CCCN(S(=O)(=O)c2c(N)n(C3CCCCC3)c3nccnc23)C1 [Example 92, 5-cyclohexyl-7-(3,3-dimethylpiperidine-1-sulfonyl)-5H-pyrrolo[2,3-b]pyrazin-6-amine] | 6.36
Nc1c(S(=O)(=O)c2ccc3c(c2)OCCO3)c2nccnc2n1C1CCCCC1 [Example 117, 5-cyclohexyl-7-(2,3-dihydro-1,4-benzodioxine-6-sulfonyl)-5H-pyrrolo[2,3-b]pyrazin-6-amine] | 6.91
CC1CCCCC1n1c(N)c(S(=O)(=O)c2ccccc2)c2nccnc21 (mixture of isomers) [Example 44, 5-(2-methylcyclohexyl)-7-(phenylsulfonyl)-5H-pyrrolo[2,3-b]pyrazin-6-amine] | 5.97
Nc1c(S(=O)(=O)c2ccccc2)c2nccnc2n1C1CCC(F)(F)CC1 [Example 49, 5-(4,4-difluoro-cyclohexyl)-7-(phenylsulfonyl)-5H-pyrrolo[2,3-b]pyrazin-6-amine] | 6.68
CCCNS(=O)(=O)c1c(N)n(C2CCCCC2)c2nccnc12 [Example 59, 6-amino-5-cyclohexyl-N-propyl-5H-pyrrolo[2,3-b]pyrazine-7-sulfonamide] | 6.10
Nc1c(S(=O)(=O)c2ccccc2)c2ncnc(Cl)c2n1C1CCC(F)(F)CC1 [Example 32, 7-(benzenesulfonyl)-4-chloro-5-(4,4-difluorocyclohexyl)-5H-pyrrolo[3,2-d]pyrimidin-6-amine] | 6.16
Nc1c(S(=O)(=O)c2ccccc2)c2cncnc2n1C1CCCCC1 [Example 16] | 6.47
Nc1c(S(=O)(=O)NCC2CC2)c2nccnc2n1C1CCCCC1 [Example 89, 6-amino-5-cyclohexyl-N-(cyclopropylmethyl)-5H-pyrrolo[2,3-b]pyrazine-7-sulfonamide] | 6.18
Nc1c(S(=O)(=O)c2ccccc2)c2nccnc2n1CC1CCCC1 [Example 54, 5-(cyclopentylmethyl)-7-(phenylsulfonyl)-5H-pyrrolo[2,3-b]pyrazin-6-amine] | 5.81
Nc1c(S(=O)(=O)c2ccccc2)c2ncncc2n1C1CCCCC1 [Example 19, 7-(benzenesulfonyl)-5-cyclohexyl-5H-pyrrolo[3,2-d]pyrimidin-6-amine] | 5.75
Nc1c(S(=O)(=O)NCCc2ccccc2)c2nccnc2n1C1CCCCC1 [Example 84, 6-amino-5-cyclohexyl-N-(2-phenylethyl)-5H-pyrrolo[2,3-b]pyrazine-7-sulfonamide] | 5.48
CCOc1ncnc2c(S(=O)(=O)c3ccccc3)c(N)n(C3CCC(F)(F)CC3)c12 [Example 29, 7-(benzenesulfonyl)-5-(4,4-difluorocyclohexyl)-4-ethoxy-5H-pyrrolo[3,2-d]pyrimidin-6-amine] | 7.51
Nc1c(S(=O)(=O)c2ccc(F)cc2)c2nccnc2n1C1CCCCC1 [Example 6, 5-cyclohexyl-7-[(4-fluorobenzene)sulfonyl]-5H-pyrrolo[2,3-b]pyrazin-6-amine] | 6.52
Nc1c(S(=O)(=O)c2ccc(OC(F)(F)F)cc2)c2nccnc2n1C1CCCCC1 [Example 116, 5-cyclohexyl-7-{[4-(trifluoromethoxy)-benzene]sulfonyl}-5H-pyrrolo[2,3-b]pyrazin-6-amine] | 5.97
